Data published in patent US20210330611A1, “THERAPY FOR NEUROLOGICAL DISEASES/DISORDERS” (priority 2020, published 2021).
Where a name gives a salt, the structure may show the parent alone. Read-outs that look alike come from different tables or passages of the source.

How the values were obtained:
[1] = system: fibrin-induced microglia activation; experiment: Image-based assay of fibrin-induced microglia activation (HTS and dose response); assay type: cell-based, rat; conditions: for IC50 / inhibition at 10 µM: Rattus norvegicus, Microglia; for inhibition at 10 µM: read-out: Fibrin % inhibition
primary rat microglia [2] = conditions: rat
in vitro [3] = conditions: rat, Cell Toxicity IC50 (uM) [cFib assay]
primary rat microglia [4] = conditions: rat; remark: listed apart in the source
[5] = system: fibrin- and LPS-induced microglia activation; experiment: cells; assay type: cell-based, rat; conditions: for inhibition at 10 µM: Rattus norvegicus
[6] = system: LPS-induced microglia activation; experiment: Image-based assay of LPS-induced microglia activation (HTS and dose response); assay type: cell-based, rat; conditions: Rattus norvegicus, Microglia; for inhibition at 10 µM: read-out: LPS % inhibition
in vitro [7] = conditions: rat
[8] = 48 h, Table 1, dose response 0.001-20 μM, triplicates, primary rat microglia, 48 h, read-out: Fibrin IC50
[9] = dose response, fibrin-induced microglia activation, read-out: Fibrin IC50
[10] = fibrin-induced microglia activation, dose response, read-out: Fibrin IC50 (uM) (Suppl. Table 7)
[11] = primary microglia HTS, fibrin stimulation, increased cell size (>800 μm^2) as marker of activation
[12] = HTS of 1907 compounds, quadrant by fibrin and LPS inhibition
[13] = Microglia, HTS hit classification, read-out: Hit
[14] = hit classification in microglia HTS, read-out: Cherry-picked Hit (Suppl. Table 7)
[15] = quadrant by fibrin and LPS inhibition in HTS of 1907 compounds
[16] = 48 h, Table 1, dose response 0.001-20 μM, triplicates, primary rat microglia, 48 h, read-out: LPS IC50
[17] = 48 h, primary microglia HTS, LPS stimulation, increased cell size (>800 μm^2) as marker of activation
[18] = LPS-induced microglia activation, dose response, read-out: LPS IC50 (uM) (Suppl. Table 7)
[19] = dose response, LPS-induced microglia activation, read-out: LPS IC50
[20] = read-out: Fibrin IC50 (uM) (Suppl. Table 7)
[21] = Microglia, read-out: Cherry-picked Hit (Suppl. Table 7)
[22] = read-out: LPS IC50 (uM) (Suppl. Table 7)
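Throughout, for Fibrin % cell toxicity: share of dead cells sized under 150 µm2 at 10 µM in fibrin-stimulated microglia HTS.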

| SMILES | IC50 [1, 8] [µM] | IC50 [1, 9] [µM] | IC50 [1, 10] [µM] | inhibition at 10 µM [1, 11] [%] | LPS % cell toxicity (primary rat microglia [2]) [%] | IC50 (in vitro [3]; cFib assay) [µM] | Fibrin % cell toxicity (primary rat microglia [4]) [%] | Quadrant (FIG. 5b) [5, 12] | inhibition at 10 µM [5, 13] [%] | inhibition at 10 µM [5, 14] [%] | Quadrant (FIG. 5b) ([5]; Table 1, screen at 10 μM) | Quadrant (FIG. 5b) [5, 15] | IC50 [6, 16] [µM] | inhibition at 10 µM [6, 17] [%] | IC50 [6, 18] [µM] | IC50 [6, 19] [µM] | IC50 (in vitro [7]) [µM] | IC50 ([1]; 48 h, read-out: Fibrin IC50) [µM] | inhibition at 10 µM [1] [%] | IC50 ([1]; read-out: Fibrin IC50 (uM)) [µM] | also measured |
| --- | --- | --- | --- | --- | --- | --- | --- | --- | --- | --- | --- | --- | --- | --- | --- | --- | --- | --- | --- | --- | --- |
| C1CCC(C(CC2CCCCN2)C2CCCCC2)CC1 (centres unmarked) [Perhexiline maleate, reference compound] | 8 | 8 | 8 | 99 | 69 | 20 | 3 | Q2 | > 50 | > 50 | Q2 | Q2 | 3 | 123 | 3 | 3 | 11 |  |  |  |  |
| O=C1NC(=O)C(c2ccccc2)(c2ccccc2)N1 [Phenytoin sodium, reference compound] | > 20 | > 20 | > 20 | 82 | 1 | > 20 | 1 | Q2 | > 50 | > 50 | Q2 | Q2 | > 20 | 63 | > 20 | > 20 | > 20 |  |  |  |  |
| O=c1[nH]c2ccccc2n1C1CCN(CCCC(c2ccc(F)cc2)c2ccc(F)cc2)CC1 [Pimozide, reference compound] | > 20 | > 20 | > 20 | 70 | 0 | > 20 | 2 | Q3 | > 50 | > 50 | Q3 | Q3 | 18 | 45 | 18 | 18 | > 20 |  |  |  |  |
| CO[C@H]1C[C@@H]2CC[C@@H](C)[C@@](O)(O2)C(=O)C(=O)N2CCCC[C@H]2C(=O)O[C@H]([C@H](C)C[C@@H]2CC[C@@H](O)[C@H](OC)C2)CC(=O)[C@H](C)/C=C(\C)[C@@H](O)[C@@H](OC)C(=O)[C@H](C)C[C@H](C)/C=C/C=C/C=C/1C [Rapamycin, reference compound] | < 0.001 | < 0.001 | < 0.001 | 86 | 2 | > 20 | 3 | Q2 | > 50 | > 50 | Q2 | Q2 | < 0.001 | 53 | < 0.001 | < 0.001 | > 20 |  |  |  |  |
| C#CCN[C@@H]1CCc2ccccc21 [Rasagiline, reference compound] |  |  |  |  | 1 |  | 1 |  |  |  |  |  |  |  |  |  | > 20 | 20 | 76 | 20 | IC50 [1, 20]: 20 µM; IC50 (in vitro [3]): > 20 µM; Quadrant (FIG. 5b) [5]: Q3; inhibition at 10 µM [5, 21]: > 50%; inhibition at 10 µM ([5]; Microglia, read-out: Hit): > 50%; inhibition at 10 µM ([6]; 48 h): 28%; IC50 ([6]; 48 h, read-out: LPS IC50): > 20 µM; IC50 ([6]; read-out: LPS IC50 (uM)): > 20 µM; IC50 [6, 22]: > 20 µM |
| OCc1cc(C(O)CNCCCCCCOCCCCc2ccccc2)ccc1O (centres unmarked) [Salmeterol, reference compound] |  |  |  |  | 1 |  | 1 |  |  |  |  |  |  |  |  |  | > 20 | 1 | 56 | 1 | Fibrin Selectivity [1]: 10; Fibrin Selectivity (LOG10) [1]: 1.02; IC50 [1, 20]: 1 µM; IC50 (in vitro [3]): > 20 µM; Quadrant (FIG. 5b) [5]: Q3; inhibition at 10 µM [5, 21]: > 50%; inhibition at 10 µM ([5]; Microglia, read-out: Hit): > 50%; inhibition at 10 µM ([6]; 48 h): 29%; IC50 ([6]; 48 h, read-out: LPS IC50): 14 µM; IC50 ([6]; read-out: LPS IC50 (uM)): 14 µM; IC50 [6, 22]: 14 µM |
| CC(C)(C)NC(=O)[C@@H]1C[C@@H]2CCCC[C@@H]2CN1C[C@@H](O)[C@H](Cc1ccccc1)NC(=O)[C@H](CC(N)=O)NC(=O)c1ccc2ccccc2n1 [Saquinavir, reference compound] | > 20 | > 20 | > 20 | 51 | 1 | > 20 | 1 | Q2 | > 50 | > 50 | Q2 | Q2 | > 20 | 56 | > 20 | > 20 | > 20 |  |  |  |  |
| CO[C@H]1C[C@H](O[C@@H]2/C(C)=C/C[C@@H]3C[C@@H](C[C@]4(CC[C@H](C)[C@@H](C5CCCCC5)O4)O3)OC(=O)[C@@H]3C=C(C)/C(=N/O)[C@H]4OC/C(=C\C=C\[C@@H]2C)[C@]43O)O[C@@H](C)[C@@H]1O [Selamectin, reference compound] |  |  |  |  | 1 |  | 1 |  |  |  |  |  |  |  |  |  | > 20 | 6 | 51 | 6 | Fibrin Selectivity [1]: 3; Fibrin Selectivity (LOG10) [1]: 0.51; IC50 [1, 20]: 6 µM; IC50 (in vitro [3]): > 20 µM; Quadrant (FIG. 5b) [5]: Q3; inhibition at 10 µM [5, 21]: > 50%; inhibition at 10 µM ([5]; Microglia, read-out: Hit): > 50%; inhibition at 10 µM ([6]; 48 h): 42%; IC50 ([6]; 48 h, read-out: LPS IC50): > 20 µM; IC50 ([6]; read-out: LPS IC50 (uM)): > 20 µM; IC50 [6, 22]: > 20 µM |
| COc1cc([C@@H]2c3cc4c(cc3[C@@H](O[C@@H]3O[C@@H]5CO[C@@H](c6cccs6)O[C@H]5[C@H](O)[C@H]3O)[C@H]3COC(=O)[C@H]23)OCO4)cc(OC)c1O [Teniposide, reference compound] | 2 | 2 | 2 | 91 | 18 | 20 | 2 | Q2 | > 50 | > 50 | Q2 | Q2 | 1 | 100 | 1 | 1 | 4 |  |  |  | IC50 ([1]; Table 7, read-out: fib_IC50): 0.821 µM; Quadrant (FIG. 5b) ([5]; Table 2, screen at 10 μM): Q2; Activity ([5]; Table 7, fib = fibrin, LPS, tox = toxicity): fib/LPS; IC50 ([6]; Table 7, read-out: LPS_IC50): 0.24 µM |
